The numbers were not newly measured in patent US20220160649A1, “PHARMACEUTICAL COMPOSITION” (priority 2019, published 2022), which cites them from elsewhere.

The conditions of this data set: stated as well known.

Take `Oc1ccc(/C=C/c2cc(O)cc(O)c2)cc1` [resveratrol (IIIA), resveratrol]: the solubility in water entry is recorded as “almost insoluble”.
